From US7452887B2, “Quinoline- and isoquinoline-based compounds exhibiting ATP-utilizing enzyme inhibitory activity, and compositions, and uses thereof” (Amphora Discovery Corporation, priority 2004, dated 2008)

Assays:
Assay in all cases: HTS ATP-utilizing enzyme assay, off-chip mobility-shift (Caliper HTS 250)
Assay type in all cases: biochemical
Details in all cases: test compound 10 μM, kinase listed = active (greater than six-sigma from the mean activity of inactive compounds)
PRAK = biological target: T1, PRAK (Homo sapiens, UniProt Q8IW41)
T1 sequence (Q8IW41 1-473): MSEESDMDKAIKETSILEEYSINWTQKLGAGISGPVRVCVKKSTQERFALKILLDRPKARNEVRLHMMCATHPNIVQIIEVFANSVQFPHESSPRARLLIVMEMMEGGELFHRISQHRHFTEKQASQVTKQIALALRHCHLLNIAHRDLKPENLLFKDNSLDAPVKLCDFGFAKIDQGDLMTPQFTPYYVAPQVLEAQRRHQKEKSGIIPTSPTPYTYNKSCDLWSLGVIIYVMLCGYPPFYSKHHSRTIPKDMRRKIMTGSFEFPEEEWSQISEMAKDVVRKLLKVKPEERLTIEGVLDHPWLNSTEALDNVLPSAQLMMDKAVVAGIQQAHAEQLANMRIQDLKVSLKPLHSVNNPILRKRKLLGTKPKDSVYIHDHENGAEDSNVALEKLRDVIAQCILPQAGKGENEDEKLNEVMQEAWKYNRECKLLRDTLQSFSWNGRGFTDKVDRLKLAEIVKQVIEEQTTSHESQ
How it was run: (§1)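 Inhibition is reported from a single 10 μM concentration. Kinase phosphorylates a peptide substrate over 2.5 hrs at 20° C. to 22° C. before EDTA termination. Potential hits are those beyond six-sigma statistical limits.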

LYNA = LYNA (Homo sapiens, UniProt P07948)
How it was run: as §1

LCK = LCK (Homo sapiens, UniProt P06239)
How it was run: as §1

NEK2 = biological target: T2, NEK2 (Homo sapiens, UniProt P51955)
T2 sequence (P51955 1-445): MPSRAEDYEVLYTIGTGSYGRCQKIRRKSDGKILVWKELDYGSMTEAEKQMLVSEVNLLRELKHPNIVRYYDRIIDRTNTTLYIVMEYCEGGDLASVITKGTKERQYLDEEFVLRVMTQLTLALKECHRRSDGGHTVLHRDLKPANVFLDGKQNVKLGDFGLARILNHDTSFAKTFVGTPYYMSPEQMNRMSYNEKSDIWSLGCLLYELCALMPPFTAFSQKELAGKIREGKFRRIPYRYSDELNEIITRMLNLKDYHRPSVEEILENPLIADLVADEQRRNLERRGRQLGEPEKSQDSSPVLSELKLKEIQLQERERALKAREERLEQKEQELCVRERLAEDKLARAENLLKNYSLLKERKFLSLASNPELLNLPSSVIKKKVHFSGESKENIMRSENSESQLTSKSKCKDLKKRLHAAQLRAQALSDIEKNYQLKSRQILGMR
How it was run: as §1

ABL1 = ABL1 (Homo sapiens, UniProt P00519)
How it was run: as §1

SRC = SRC (Homo sapiens, UniProt P12931)
How it was run: as §1

C-TAK1 = C-TAK1 (Homo sapiens, UniProt P27448)
How it was run: as §1

MAPKAPK2 = MAPKAPK2 (Homo sapiens, UniProt P49137)
How it was run: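 Phosphorylation of a peptide substrate was quantified by Caliper mobility-shift separation of substrate and product after 2.5 h at 20-22 °C, with compounds tested at 10 μM. Inhibition was normalized to EDTA-quenched (100%) and DMSO (0%) controls; six-sigma thresholds flagged actives.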

BMX = biological target: T3, BMX (Homo sapiens, UniProt P51813)
T3 sequence (P51813 1-675): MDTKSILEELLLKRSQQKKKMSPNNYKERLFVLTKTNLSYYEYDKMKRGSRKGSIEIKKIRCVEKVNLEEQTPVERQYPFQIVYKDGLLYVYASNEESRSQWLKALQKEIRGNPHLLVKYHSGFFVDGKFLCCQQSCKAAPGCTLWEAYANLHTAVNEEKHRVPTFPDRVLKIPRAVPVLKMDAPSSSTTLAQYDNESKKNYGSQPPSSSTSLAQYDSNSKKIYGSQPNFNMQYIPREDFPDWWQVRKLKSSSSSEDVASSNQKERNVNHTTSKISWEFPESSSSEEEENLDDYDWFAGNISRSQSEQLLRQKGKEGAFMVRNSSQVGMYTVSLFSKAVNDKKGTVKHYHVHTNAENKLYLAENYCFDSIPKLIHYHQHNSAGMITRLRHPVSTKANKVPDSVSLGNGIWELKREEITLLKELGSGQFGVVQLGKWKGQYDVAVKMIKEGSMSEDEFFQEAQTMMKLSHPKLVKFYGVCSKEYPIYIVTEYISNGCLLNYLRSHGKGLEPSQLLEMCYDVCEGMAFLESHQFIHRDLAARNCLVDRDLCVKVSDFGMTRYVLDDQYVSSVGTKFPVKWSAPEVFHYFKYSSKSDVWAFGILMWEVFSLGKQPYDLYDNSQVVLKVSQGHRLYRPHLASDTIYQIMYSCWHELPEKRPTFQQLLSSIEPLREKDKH
How it was run: as §1

FLT-3 = biological target: T4, FLT-3 (Homo sapiens, UniProt P36888)
T4 sequence (P36888 27-993): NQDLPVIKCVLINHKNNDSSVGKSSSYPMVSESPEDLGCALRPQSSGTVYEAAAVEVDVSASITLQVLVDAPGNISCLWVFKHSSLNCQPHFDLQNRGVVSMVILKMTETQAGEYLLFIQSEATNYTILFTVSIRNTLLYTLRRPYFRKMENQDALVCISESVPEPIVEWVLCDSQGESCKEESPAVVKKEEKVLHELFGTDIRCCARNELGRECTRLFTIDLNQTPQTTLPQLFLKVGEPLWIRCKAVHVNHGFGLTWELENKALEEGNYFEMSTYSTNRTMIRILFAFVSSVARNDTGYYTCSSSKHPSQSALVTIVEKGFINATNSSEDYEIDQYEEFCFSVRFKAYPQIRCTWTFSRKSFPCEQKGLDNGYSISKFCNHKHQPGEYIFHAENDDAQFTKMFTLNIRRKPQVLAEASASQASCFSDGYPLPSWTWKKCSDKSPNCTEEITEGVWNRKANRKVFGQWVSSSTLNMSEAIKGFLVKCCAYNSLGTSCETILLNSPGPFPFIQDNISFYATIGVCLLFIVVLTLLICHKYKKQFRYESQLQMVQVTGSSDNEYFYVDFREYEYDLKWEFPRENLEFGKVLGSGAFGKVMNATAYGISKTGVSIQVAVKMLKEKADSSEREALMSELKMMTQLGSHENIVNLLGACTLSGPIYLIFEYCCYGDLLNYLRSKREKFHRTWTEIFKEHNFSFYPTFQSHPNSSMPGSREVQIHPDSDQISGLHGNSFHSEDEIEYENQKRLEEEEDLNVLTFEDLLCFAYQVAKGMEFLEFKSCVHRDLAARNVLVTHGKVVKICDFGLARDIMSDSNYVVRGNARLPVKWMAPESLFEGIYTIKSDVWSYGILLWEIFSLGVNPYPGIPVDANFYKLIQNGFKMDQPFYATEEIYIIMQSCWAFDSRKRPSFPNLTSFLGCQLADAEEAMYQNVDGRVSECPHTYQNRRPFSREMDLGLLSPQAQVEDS
How it was run: as §1

PDGFR-α = PDGFR-α (Homo sapiens, UniProt P16234)
How it was run: as §1

AKT3 = AKT3 (Homo sapiens, UniProt Q9Y243)
How it was run: as §1

Sequence of SRC (P12931 whole entry): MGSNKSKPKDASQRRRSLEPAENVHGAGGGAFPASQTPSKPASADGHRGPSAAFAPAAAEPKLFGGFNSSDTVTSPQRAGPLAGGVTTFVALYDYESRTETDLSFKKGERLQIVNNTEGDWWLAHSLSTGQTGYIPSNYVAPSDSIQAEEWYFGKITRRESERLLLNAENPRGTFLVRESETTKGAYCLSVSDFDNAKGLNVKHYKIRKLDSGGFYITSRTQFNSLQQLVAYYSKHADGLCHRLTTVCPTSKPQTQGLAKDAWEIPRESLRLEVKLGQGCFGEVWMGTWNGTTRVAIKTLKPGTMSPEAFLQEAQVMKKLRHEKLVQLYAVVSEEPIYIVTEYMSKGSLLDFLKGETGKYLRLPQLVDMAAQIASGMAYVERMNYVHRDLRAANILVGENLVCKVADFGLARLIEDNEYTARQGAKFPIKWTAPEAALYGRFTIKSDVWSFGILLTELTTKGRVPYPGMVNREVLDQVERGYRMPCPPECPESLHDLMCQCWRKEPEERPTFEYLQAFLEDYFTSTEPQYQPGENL
Sequence of C-TAK1 (P27448 whole entry): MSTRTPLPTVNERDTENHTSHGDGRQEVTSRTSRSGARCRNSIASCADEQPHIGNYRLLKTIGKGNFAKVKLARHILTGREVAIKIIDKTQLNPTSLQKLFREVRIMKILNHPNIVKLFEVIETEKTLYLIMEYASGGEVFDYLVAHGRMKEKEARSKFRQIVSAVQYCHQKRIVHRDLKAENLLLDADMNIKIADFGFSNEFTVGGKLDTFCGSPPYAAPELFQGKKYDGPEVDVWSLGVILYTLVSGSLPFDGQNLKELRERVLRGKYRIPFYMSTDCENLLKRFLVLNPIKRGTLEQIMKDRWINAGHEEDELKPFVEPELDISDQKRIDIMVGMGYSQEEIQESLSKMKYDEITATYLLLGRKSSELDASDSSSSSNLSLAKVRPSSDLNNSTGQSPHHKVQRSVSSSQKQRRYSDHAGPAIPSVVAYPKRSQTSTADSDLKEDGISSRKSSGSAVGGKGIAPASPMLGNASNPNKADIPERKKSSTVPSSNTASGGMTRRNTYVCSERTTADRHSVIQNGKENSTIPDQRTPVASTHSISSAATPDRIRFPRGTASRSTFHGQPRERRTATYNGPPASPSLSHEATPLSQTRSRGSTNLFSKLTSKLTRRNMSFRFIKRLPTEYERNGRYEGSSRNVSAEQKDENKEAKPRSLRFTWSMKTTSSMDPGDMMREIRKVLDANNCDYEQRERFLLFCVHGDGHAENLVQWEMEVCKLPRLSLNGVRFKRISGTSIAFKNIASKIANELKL
Sequence of MAPKAPK2 (P49137 whole entry): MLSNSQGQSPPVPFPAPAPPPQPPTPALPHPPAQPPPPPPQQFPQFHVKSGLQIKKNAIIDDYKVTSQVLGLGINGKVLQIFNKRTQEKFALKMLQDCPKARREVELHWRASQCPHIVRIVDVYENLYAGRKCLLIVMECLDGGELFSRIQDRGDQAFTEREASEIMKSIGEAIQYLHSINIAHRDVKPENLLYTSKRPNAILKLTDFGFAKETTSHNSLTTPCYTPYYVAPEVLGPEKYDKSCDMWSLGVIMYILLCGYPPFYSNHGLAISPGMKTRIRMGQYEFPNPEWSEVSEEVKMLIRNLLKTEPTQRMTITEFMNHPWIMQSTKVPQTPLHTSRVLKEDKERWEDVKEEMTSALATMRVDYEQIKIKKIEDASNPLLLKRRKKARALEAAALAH
Sequence of ABL1 (P00519 whole entry): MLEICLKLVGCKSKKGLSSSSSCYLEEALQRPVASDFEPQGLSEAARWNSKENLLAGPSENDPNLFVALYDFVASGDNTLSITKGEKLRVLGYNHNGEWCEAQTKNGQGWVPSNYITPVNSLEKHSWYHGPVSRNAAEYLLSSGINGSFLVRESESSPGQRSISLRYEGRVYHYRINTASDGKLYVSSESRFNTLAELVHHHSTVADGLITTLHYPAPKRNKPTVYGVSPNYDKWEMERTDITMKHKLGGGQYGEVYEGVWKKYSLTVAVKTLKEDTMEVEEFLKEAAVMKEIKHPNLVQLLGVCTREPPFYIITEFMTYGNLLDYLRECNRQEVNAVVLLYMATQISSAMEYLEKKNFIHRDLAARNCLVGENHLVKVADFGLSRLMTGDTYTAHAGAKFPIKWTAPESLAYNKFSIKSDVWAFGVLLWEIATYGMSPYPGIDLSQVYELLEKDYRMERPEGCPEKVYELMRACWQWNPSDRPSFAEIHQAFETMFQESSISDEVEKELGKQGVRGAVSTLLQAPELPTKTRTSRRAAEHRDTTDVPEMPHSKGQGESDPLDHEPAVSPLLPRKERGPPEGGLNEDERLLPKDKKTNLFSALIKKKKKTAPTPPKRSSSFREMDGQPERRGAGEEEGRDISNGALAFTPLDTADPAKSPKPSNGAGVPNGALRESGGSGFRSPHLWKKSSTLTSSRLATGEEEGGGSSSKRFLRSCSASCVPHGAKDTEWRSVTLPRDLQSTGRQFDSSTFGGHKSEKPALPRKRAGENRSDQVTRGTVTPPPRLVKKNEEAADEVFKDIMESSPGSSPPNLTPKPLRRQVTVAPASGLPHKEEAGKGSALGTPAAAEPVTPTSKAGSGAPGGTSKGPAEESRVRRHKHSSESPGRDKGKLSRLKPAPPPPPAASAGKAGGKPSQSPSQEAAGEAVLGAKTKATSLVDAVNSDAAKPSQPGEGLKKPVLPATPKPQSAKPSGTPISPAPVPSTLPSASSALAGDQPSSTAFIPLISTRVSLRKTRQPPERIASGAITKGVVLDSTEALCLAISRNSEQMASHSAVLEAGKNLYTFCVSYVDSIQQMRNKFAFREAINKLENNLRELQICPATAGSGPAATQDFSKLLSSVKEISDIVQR
Sequence of LYNA (P07948 whole entry): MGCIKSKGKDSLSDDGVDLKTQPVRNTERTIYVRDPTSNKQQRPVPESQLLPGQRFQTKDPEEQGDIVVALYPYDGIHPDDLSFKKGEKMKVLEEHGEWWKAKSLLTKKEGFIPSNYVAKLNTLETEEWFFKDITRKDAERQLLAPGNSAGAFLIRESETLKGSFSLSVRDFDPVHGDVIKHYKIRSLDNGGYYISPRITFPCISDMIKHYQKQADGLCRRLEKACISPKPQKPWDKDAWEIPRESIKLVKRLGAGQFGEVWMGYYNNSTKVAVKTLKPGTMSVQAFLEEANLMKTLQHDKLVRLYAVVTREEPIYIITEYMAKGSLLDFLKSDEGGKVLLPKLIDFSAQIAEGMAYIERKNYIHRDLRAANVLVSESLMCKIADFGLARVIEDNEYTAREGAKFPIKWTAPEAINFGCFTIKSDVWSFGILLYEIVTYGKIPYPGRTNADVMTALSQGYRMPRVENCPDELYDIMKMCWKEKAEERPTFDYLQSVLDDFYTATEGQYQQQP
Sequence of LCK (P06239 whole entry): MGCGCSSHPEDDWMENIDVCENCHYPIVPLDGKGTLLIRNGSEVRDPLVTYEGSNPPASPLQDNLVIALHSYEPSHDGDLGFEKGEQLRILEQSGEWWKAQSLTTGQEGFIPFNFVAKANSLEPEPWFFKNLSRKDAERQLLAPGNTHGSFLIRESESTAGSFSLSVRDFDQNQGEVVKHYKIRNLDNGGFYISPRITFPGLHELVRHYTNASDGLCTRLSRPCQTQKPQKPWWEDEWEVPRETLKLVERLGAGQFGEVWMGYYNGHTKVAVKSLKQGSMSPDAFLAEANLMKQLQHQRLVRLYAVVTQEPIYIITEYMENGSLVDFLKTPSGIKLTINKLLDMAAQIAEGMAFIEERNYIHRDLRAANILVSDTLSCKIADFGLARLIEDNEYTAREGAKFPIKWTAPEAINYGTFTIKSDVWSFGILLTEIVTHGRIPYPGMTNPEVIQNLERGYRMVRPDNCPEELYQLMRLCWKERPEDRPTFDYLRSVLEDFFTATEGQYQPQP
Sequence of PDGFR-α (P16234 24-1089): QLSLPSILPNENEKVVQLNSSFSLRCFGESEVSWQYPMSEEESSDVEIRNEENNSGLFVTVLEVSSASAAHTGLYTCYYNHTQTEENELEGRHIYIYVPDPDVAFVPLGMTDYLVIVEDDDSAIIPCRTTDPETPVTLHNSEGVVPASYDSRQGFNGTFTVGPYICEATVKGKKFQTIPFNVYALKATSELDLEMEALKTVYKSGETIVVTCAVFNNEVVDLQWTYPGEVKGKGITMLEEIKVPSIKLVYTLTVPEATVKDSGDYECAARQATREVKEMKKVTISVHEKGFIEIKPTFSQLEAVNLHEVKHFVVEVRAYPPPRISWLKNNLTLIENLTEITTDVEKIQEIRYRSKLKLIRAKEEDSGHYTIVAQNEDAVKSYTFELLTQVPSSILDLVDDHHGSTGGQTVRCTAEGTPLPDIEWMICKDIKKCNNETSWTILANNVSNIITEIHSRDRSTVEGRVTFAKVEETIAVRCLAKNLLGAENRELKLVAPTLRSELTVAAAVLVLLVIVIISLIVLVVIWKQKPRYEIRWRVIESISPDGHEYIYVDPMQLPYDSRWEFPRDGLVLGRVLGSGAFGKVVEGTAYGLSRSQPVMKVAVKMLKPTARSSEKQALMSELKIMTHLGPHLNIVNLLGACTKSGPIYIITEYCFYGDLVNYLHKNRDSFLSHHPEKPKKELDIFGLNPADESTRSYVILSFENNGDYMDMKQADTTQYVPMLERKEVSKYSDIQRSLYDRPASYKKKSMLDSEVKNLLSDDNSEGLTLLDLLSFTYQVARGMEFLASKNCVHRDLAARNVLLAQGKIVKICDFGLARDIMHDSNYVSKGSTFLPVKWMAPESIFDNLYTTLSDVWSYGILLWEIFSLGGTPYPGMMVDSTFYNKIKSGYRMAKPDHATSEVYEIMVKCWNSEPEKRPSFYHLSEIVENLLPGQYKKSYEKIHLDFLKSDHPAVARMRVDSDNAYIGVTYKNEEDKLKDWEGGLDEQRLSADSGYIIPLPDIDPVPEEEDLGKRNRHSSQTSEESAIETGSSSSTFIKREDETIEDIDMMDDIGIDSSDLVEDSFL

Row | SMILES | Activity (PRAK) | Activity (ABL1) | Activity (SRC) | Activity (C-TAK1) | Activity (MAPKAPK2) | also measured
1 | CN1CCN(c2ccc(Nc3ccnc4ccc(-c5ccccc5-c5ccccc5)cc34)cc2)CC1 [6-(biphenyl-2-yl)-N-(4-(4-methylpiperazin-1-yl)phenyl)quinolin-4-amine] | PRAK | ABL | – | – | – | Activity (LYNA): LYNA; Activity (LCK): LCK; Activity (NEK2): NEK2
2 | CN1CCN(c2ccc(Nc3ccnc4ccc(-c5cc6ccccc6s5)cc34)cc2)CC1 [6-(benzo[b]thiophen-2-yl)-N-(4-(4-methylpiperazin-1-yl)phenyl)quinolin-4-amine] | – | – | SRC | C-TAK1 | MAPKAPK2 | –
3 | CN1CCN(c2ccc(Nc3ccnc4ccc(-c5ccc(OCc6ccccc6)cc5)cc34)cc2)CC1 [6-(4-(benzyloxy)phenyl)-N-(4-(4-methylpiperazin-1-yl)phenyl)quinolin-4-amine] | – | – | SRC | C-TAK1 | – | Activity (BMX): BMX
4 | O=C(O)CN1CCN(c2ccc(Nc3ccnc4ccc(-c5ccccc5)cc34)cc2)CC1 [2-(4-(4-(6-phenylquinolin-4-ylamino)phenyl)piperazin-1-yl)acetic acid] | – | – | – | – | MAPKAPK2 | Activity (FLT-3): FLT-3; Activity (PDGFR-α): PDGFR-α
5 | COc1ccc(-c2ccc3nccc(Nc4ccc(N5CCN(CC(=O)O)CC5)cc4)c3c2)cc1 [2-(4-(4-(6-(4-methoxyphenyl)quinolin-4-ylamino)phenyl)piperazin-1-yl)acetic acid] | – | – | – | – | MAPKAPK2 | Activity (PDGFR-α): PDGFR-α
6 | CN1CCN(c2ccc(Nc3ccnc4ccc(-c5cccc(O)c5)cc34)cc2)CC1 [3-(4-(4-(4-methylpiperazin-1-yl)phenylamino)quinolin-6-yl)phenol] | PRAK | ABL1 | SRC | – | MAPKAPK2 | Activity (AKT3): AKT3; Activity (LCK): LCK
7 | CN1CCN(c2ccc(Nc3ccnc4ccc(-c5cccc(Cl)c5Cl)cc34)cc2)CC1 [6-(2,3-dichlorophenyl)-N-(4-(4-methylpiperazin-1-yl)phenyl)quinolin-4-amine] | PRAK | – | – | C-TAK1 | MAPKAPK2 | Activity (LYNA): LYNA
8 | CN1CCN(c2ccc(Nc3ccnc4ccc(-c5csc6ccccc56)cc34)cc2)CC1 [6-(benzo[b]thiophen-3-yl)-N-(4-(4-methylpiperazin-1-yl)phenyl)quinolin-4-amine] | PRAK | ABL1 | – | – | MAPKAPK2 | –
